Results published in patent US8163718B2, “Nucleoside analogues containing phosphonate or phosphonamide groups” (Gilead Sciences, Inc., priority 2008, dated 2012).

Legend:
Assay in all cases: Cytostatic cell culture assay (GI50), SRB
Format in all cases: cell-based
Hs-578 = conditions: Hs578, 120 h; 5 days incubation
In short: (§1)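 Cell mass was quantified by sulforhodamine B binding to TCA-fixed proteins, read at 500 nm. Compound treatment lasted 5 days at 37 °C, and GI50 was obtained by sigmoidal curve fitting.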

Du-145 = conditions: Homo sapiens, DU-145, 120 h; 5 days incubation
In short: as §1

HCT-15 = conditions: Homo sapiens, HCT-15, 120 h; 5 days incubation
In short: as §1

BT-549 = conditions: Homo sapiens, BT-549, 120 h; 5 days incubation
In short: as §1

HCT-116 = conditions: Homo sapiens, HCT-116, 120 h; 5 days incubation
In short: as §1

NCI-H23 = conditions: Homo sapiens, NCI-H23, 120 h; 5 days incubation
In short: as §1

PC3 = conditions: Homo sapiens, PC-3, 120 h; 5 days incubation
In short: as §1

A549 = conditions: Homo sapiens, A549, 120 h; 5 days incubation
In short: as §1

| GI50 (Du-145) | GI50 (HCT-15) | GI50 (BT-549) | GI50 (HCT-116) | GI50 (NCI-H23) | GI50 (PC3) | GI50 (A549) | Structure (SMILES) | GI50 (Hs-578) |
| --- | --- | --- | --- | --- | --- | --- | --- | --- |
| 18 nM | > 10000 nM | 423 nM | 652 nM | 19 nM | 190 nM | 762 nM | CCOC(=O)[C@H](C)NP(=O)(COCCn1cnc2c(OC(C)C)nc(N)nc21)N[C@@H](C)C(=O)OCC [Example 33] | 243 nM |
| 1 nM | 6400 nM | 301 nM | 133 nM | 11 nM | 10 nM | 195 nM | CCCCCOc1nc(N)nc2c1ncn2CCOCP(=O)(N[C@@H](C)C(=O)OCC)N[C@@H](C)C(=O)OCC [Example 41] | 62 nM |
| 138 nM | > 10000 nM | 386 nM | 979 nM | 124 nM | 634 nM | 3820 nM | CCCOc1nc(N)nc2c1ncn2CCOCP(=O)(N1CCC[C@H]1C(=O)OC(C)C)N1CCC[C@H]1C(=O)OC(C)C [Example 24] | 452 nM |
| 2 nM | 534 nM | 45 nM | 118 nM | 10 nM | 40 nM | 168 nM | CCCOc1nc(N)nc2c1ncn2CCOCP(=O)(OCOC(=O)OC(C)C)OCOC(=O)OC(C)C [Example 59] | 61 nM |
| 250 nM | > 10000 nM | 1620 nM | 3070 nM | 118 nM | 608 nM | 3700 nM | CCOC(=O)[C@@H]1CCCN1P(=O)(COCCn1cnc2c(NC3CC3)nc(N)nc21)N1CCC[C@H]1C(=O)OCC [Example 50] | 308 nM |
| 29 nM | > 10000 nM | 1110 nM | 988 nM | 32 nM | 325 nM | 387 nM | COc1nc(N)nc2c1ncn2CCOCP(=O)(N[C@@H](C)C(=O)OC(C)C)N[C@@H](C)C(=O)OC(C)C [Example 29] | 378 nM |

| Structure (SMILES) | GI50 (Du-145) | GI50 (HCT-15) | GI50 (BT-549) | GI50 (HCT-116) | GI50 (NCI-H23) | GI50 (PC3) | GI50 (A549) | GI50 (Hs-578) |
| --- | --- | --- | --- | --- | --- | --- | --- | --- |
| CCCOc1nc(N)nc2c1ncn2CCOCP(=O)(N[C@@H](Cc1ccccc1)C(=O)OCC)Oc1ccccc1 (stereo partly shown) [Example 55] | 4 nM | 815 nM | 756 nM | 47 nM | 9 nM | 59 nM | 80 nM | 149 nM |
| Nc1nc(OC2CCC2)c2ncn(CCOCP(=O)(O)O)c2n1 [Example 9, [2-(2-Amino-6-cyclobutoxy-purin-9-yl)-ethoxymethyl]-phosphonic acid] | 77 nM | 1220 nM | 1550 nM | 1720 nM | 359 nM | 955 nM | 1830 nM | 1550 nM |
